Results taken from paper PMC7400207, “It Takes Two: Dimerization Is Essential for the Broad-Spectrum Predatory and Defensive Activities of the Venom Peptide Mp1a from the Jack Jumper Ant Myrmecia pilosula” (Biomedicines, 2020).
Like-named read-outs stand apart in the source and are kept apart here. Marks after values point to notes of the source that are not given here.

What was measured:
[1] = test system: Drosophila melanogaster; assay: Drosophila melanogaster microinjection assay; type: in vivo; settings: intrathoracic injection, 50 nL, adult female flies, lethality at 24 h; three dose-response curves, ± SEM
Experimental: The insecticidal activity of the chemically synthesized 1a and analogues thereof were determined by injection into adult female D. melanogaster aged 3–5 days (mass 0.7–0.9 mg) as described previously. Analogues were dissolved in water and intrathoracically injected using pulled glass capillaries at a volume of 50 nL per fruit fly, and the results were compared against an equivalent injection volume of water alone. All injections were performed in the morning or early afternoon. At 24 h post-injection flies were monitored for lethality. Dose–response curves were constructed using 7–10 doses per analogue (each dose tested in eight flies) and three separate dose–response curves were constructed for each analogue. The lethality in the groups receiving the analogues were adjusted using the respective control group lethality using the Henderson-Tilton formula [20]. The median lethal dose (LD50) of each analogue was calculated based on the three dose–response curves using GraphPad Prism 8.0 [21]. One-way ANOVA followed by Dunnett’s multiple comparison test were used to compare LD50 values.

[2] = test system: Haemonchus contortus; assay: microbe, parasite or virus in culture; type: cell-based; settings: for IC50: read-out: Anthelmintic Activity (IC50), inhibition of larval development; for Fold less active than levamisole (IC50 higher): larval development, drug-susceptible isolate
Experimental: Sheep were infected with H. contortus Kirby isolate (field isolate from the University of New England Kirby Research Farm in 1986; susceptible to all commercial anthelmintics) and housed at the Commonwealth Scientific and Industrial Research Organisation (CSIRO) FD McMaster Laboratory, Armidale, NSW. All animal procedures were approved by the FD McMaster Animal Ethics Committee, CSIRO (Approval Number AEC 17/12, approval date 15.6.2017). Eggs were prepared from overnight fecal collection as described. In brief, feces were filtered through mesh filters, settled, and supernatant removed by vacuum. Eggs were recovered by density centrifugation using 10 and 25% (w/v) sucrose solutions, centrifuged at 650× g for 7 min. Eggs were recovered from the interface of the two sucrose layers, rinsed with distilled water, sterilized with bleach, rinsed again, and diluted to 4500 eggs/mL. Tylosin tartrate (800 μg/mL) and amphotericin B (25.0 μg/mL) were added, and eggs were used immediately for larval development assays.
Assays were conducted using 96-well microtitre plates, with each well containing 50 μL of 2% agar, 20 μL of egg solution and 20 μL of peptide solution in water. The commercial anthelmintic levamisole (Sigma Aldrich) was used as a positive control (final 1% v/v). Negative controls contained equivalent volumes of water or DMSO (final 1% v/v). Plates were incubated at 26 °C for six days. After 24 h, each well was fed with 10 μL of a nutrient solution containing Escherichia coli XL1-Blue1 (grown overnight at 37 °C) and growth medium. The growth medium consisted of yeast extract (1% w/v), Earle’s salt solution (10% v/v), saline solution (0.9% NaCl, w/v), and sodium bicarbonate (1 mM) in Luria-Bertani medium (LB). Larvae were killed and stained with Lugol’s iodine solution after six days. Larvae that had developed to the infective L3 stage were counted, and the numbers in treated assay wells were expressed as a percentage of the number of infective L3 stage larvae in multiple control wells. Concentrations that caused 50% inhibition (IC50 values) were calculated from three experiments of duplicate assays.

[3] = test system: human red blood cells; settings: cited from earlier work
Experimental: (§1) Table 2 Summary of bioassay data for synthetic Mp1a and analogues, including effective concentration (EC50) for activation of F11 cells, concentrations that caused 50% inhibition (IC50) for inhibition of larval development of H. contortus; median lethal dose (LD50) for lethal insecticidal effects on D. melanogaster; concentrations required to induce 50% cell death (CC50) for effects on viability o | column: Hemolysis (HC50 µM) ^b

[4] = test system: HEK293 cells; settings: HEK293, 24 h, resazurin; cited from earlier work
Experimental: as §1, with “Cytotoxicity (CC50” for “Hemolysis (HC50”

[5] = test system: F11 cells; assay: FLIPR calcium assay, activation of F11 cells; type: cell-based; settings: F11 cells, FLIPR; for Neuronal Cell Activation (EC50) / EC50: Calcium 4 dye, max-min fluorescence in 300 s after peptide addition, PSS with 0.1% BSA, mean ± SEM, triplicate; for EC50: read-out: Neuronal Cell Activation (EC50)
Experimental: F11 cells were cultured as previously described. Cells were maintained on Ham’s F12 media supplemented with 10% fetal bovine serum (FBS), 100 µM hypoxanthine, 0.4 µM aminopterin, and 16 µM thymidine (Hybri-MaxTM, Sigma Aldrich, North Ryde, Australia). Then, 384-well imaging plates (Corning) were seeded 48 h prior to imaging resulting in 90–95% confluence at imaging. Cells were incubated for 30 min with the Calcium 4 assay component A according to the manufacturer’s instructions (Molecular Devices, Sunnyvale, CA, USA) in physiological salt solution (PSS; composition in mM: 140 NaCl, 11.5 D-glucose, 5.9 KCl, 1.4 MgCl2, 1.2 NaH2PO4, 5 NaHCO3, 1.8 CaCl2, 10 HEPES) at 37°C. Fluorescence was measured using a fluorescent imaging plate reader (FLIPR^TETRA) equipped with a CCD camera (Excitation: 470–490 nm, Emission: […]) (Molecular Devices, Sunnyvale, CA, USA). Signals were read every second for 10 s before, and 300 s after the addition of peptides in PSS supplemented with 0.1% bovine serum albumin. All data are the mean ± SEM of assays performed in triplicate. Maximum–minimum fluorescence in the 300 s period after peptide addition was recorded as the response. Concentration–response data were fitted with a four-parameter Hill equation (variable slope) using GraphPad Prism 8 to obtain effective concentration (EC50) values.

[6] = H. contortus Kirby isolate, egg to infective L3, 6 days, 26 °C, three experiments of duplicate assays, ± SEM, for 1a the component at higher concentrations (about 90% of population)

Compound | Insecticidal Activity (LD50) [1] | IC50 [2, 6] | Hemolysis (HC50) [3] | Cytotoxicity (CC50) [4] | Neuronal Cell Activation (EC50) [5] | IC50 ([2]; Haemonchus contortus, 144 h) | Fold less active than levamisole (IC50 higher) [2] | Concentration at which cytolysis (rapid increase in fluorescence followed by decrease to or below baseline) was observed [5] | EC50 [5]
CC[C@H](C)[C@H](N)C(=O)N[C@@H](CC(=O)O)C(=O)N[C@@H](Cc1c[nH]c2ccccc12)C(=O)N[C@@H](CCCCN)C(=O)N[C@@H](CCCCN)C(=O)N[C@H](C(=O)N[C@@H](CC(=O)O)C(=O)N[C@@H](Cc1c[nH]c2ccccc12)C(=O)N[C@@H](CCCCN)C(=O)N[C@@H](CCCCN)C(=O)N[C@H](C(=O)N[C@@H](CO)C(=O)N[C@@H](CCCCN)C(=O)N[C@@H](CCCCN)C(=O)N[C@H](C(=O)N[C@H]1CSSC[C@@H](C(=O)N[C@@H](CCCCN)C(=O)N[C@@H](Cc2ccccc2)C(=O)N[C@@H](CC(C)C)C(N)=O)NC(=O)[C@H](C)NC(=O)[C@H](CCCCN)NC(=O)[C@H](CC(C)C)NC(=O)[C@H](CCSC)NC(=O)[C@H](C(C)C)NC(=O)[C@H](CCCCN)NC1=O)[C@@H](C)O)C(C)C)C(C)C [Analogue 3a] | > 600 pmol/g | 46.8 ± 0.6 µM | > 20 µM | > 20 µM | inactive | – | – | – | –
c1ccc([C@H]2CN3CCSC3=N2)cc1 [levamisole, reference compound] | – | – | – | – | – | 0.68 µM | – | – | –
H-LIGLVSKGTSVLVKTVSKKVLKQ-NH2 [Analogue 4b] | > 600 pmol/g | 61.3 ± 4.4 µM | > 15 µM | > 15 µM | inactive | – | – | – | –
CC[C@H](C)[C@H](N)C(=O)N[C@@H](CC(=O)O)C(=O)N[C@@H](Cc1c[nH]c2ccccc12)C(=O)N[C@@H](CCCCN)C(=O)N[C@@H](CCCCN)C(=O)N[C@H](C(=O)N[C@@H](CC(=O)O)C(=O)N[C@@H](Cc1c[nH]c2ccccc12)C(=O)N[C@@H](CCCCN)C(=O)N[C@@H](CCCCN)C(=O)N[C@H](C(=O)N[C@@H](CO)C(=O)N[C@@H](CCCCN)C(=O)N[C@@H](CCCCN)C(=O)N[C@H](C(=O)N[C@H]1CSSC[C@@H](C(=O)N[C@@H](CCCCN)C(=O)N[C@@H](CCCCN)C(=O)N[C@H](C(=O)N[C@@H](CC(C)C)C(=O)N[C@@H](CCCCN)C(=O)N[C@@H](CCC(N)=O)C(N)=O)C(C)C)NC(=O)[C@H](C(C)C)NC(=O)[C@H]([C@@H](C)O)NC(=O)[C@H](CCCCN)NC(=O)[C@H](C(C)C)NC(=O)[C@H](CC(C)C)NC(=O)[C@H](C(C)C)NC(=O)[C@@H](NC(=O)[C@@H](NC(=O)CNC(=O)[C@H](CCCCN)NC(=O)[C@H](CO)NC(=O)[C@@H](NC(=O)[C@H](CC(C)C)NC(=O)CNC(=O)[C@@H](NC(=O)[C@@H](N)CC(C)C)[C@@H](C)CC)C(C)C)[C@@H](C)O)CSSC[C@@H](C(=O)N[C@@H](CCCCN)C(=O)N[C@@H](Cc2ccccc2)C(=O)N[C@@H](CC(C)C)C(N)=O)NC(=O)[C@H](C)NC(=O)[C@H](CCCCN)NC(=O)[C@H](C)NC(=O)[C@H](CCSC)NC(=O)[C@H](C(C)C)NC(=O)[C@H](CCCCN)NC1=O)[C@@H](C)O)C(C)C)C(C)C [Analogue 1d] | 578 ± 9.7 ^a pmol/g | 9.5 ± 0.3 µM | > 12 µM | 0.7 µM | – | – | approximately 10 fold | ≥ 1 µM | 3.38 ± 2.8 µM
CC[C@H](C)[C@H](N)C(=O)N[C@@H](CC(=O)O)C(=O)N[C@@H](Cc1c[nH]c2ccccc12)C(=O)N[C@@H](CCCCN)C(=O)N[C@@H](CCCCN)C(=O)N[C@H](C(=O)N[C@@H](CC(=O)O)C(=O)N[C@@H](Cc1c[nH]c2ccccc12)C(=O)N[C@@H](CCCCN)C(=O)N[C@@H](CCCCN)C(=O)N[C@H](C(=O)N[C@@H](CO)C(=O)N[C@@H](CCCCN)C(=O)N[C@@H](CCCCN)C(=O)N[C@H](C(=O)N[C@H]1CSSC[C@@H](C(=O)N[C@@H](CCCCN)C(=O)N[C@@H](CCCCN)C(=O)N[C@H](C(=O)N[C@@H](CC(C)C)C(=O)N[C@@H](CCCCN)C(=O)N[C@@H](CCC(N)=O)C(N)=O)C(C)C)NC(=O)[C@H](C(C)C)NC(=O)[C@H]([C@@H](C)O)NC(=O)[C@H](CCCCN)NC(=O)[C@H](C)NC(=O)[C@H](CC(C)C)NC(=O)[C@H](C(C)C)NC(=O)[C@@H](NC(=O)[C@@H](NC(=O)CNC(=O)[C@H](CCCCN)NC(=O)[C@H](CO)NC(=O)[C@@H](NC(=O)[C@H](CC(C)C)NC(=O)CNC(=O)[C@@H](NC(=O)[C@@H](N)CC(C)C)[C@@H](C)CC)C(C)C)[C@@H](C)O)CSSC[C@@H](C(=O)N[C@@H](CCCCN)C(=O)N[C@@H](Cc2ccccc2)C(=O)N[C@@H](CC(C)C)C(N)=O)NC(=O)[C@H](C)NC(=O)[C@H](CCCCN)NC(=O)[C@H](CC(C)C)NC(=O)[C@H](CCSC)NC(=O)[C@H](C(C)C)NC(=O)[C@H](CCCCN)NC1=O)[C@@H](C)O)C(C)C)C(C)C [Analogue 1c] | 552.7 ± 18.2 ^a pmol/g | 7.2 ± 0.1 µM | > 12 µM | 0.7 µM | – | – | approximately 10 fold | ≥ 1 µM | 1.39 ± 0.34 µM
H-IDWKKVDWKKVSKKTSKVMLKASKFL-NH2 [Analogue 3b] | > 600 pmol/g | 64.9 ± 6.3 µM | > 20 µM | > 20 µM | inactive | – | – | – | –
CC[C@H](C)[C@H](NC(=O)[C@@H](N)CC(C)C)C(=O)NCC(=O)N[C@@H](CC(C)C)C(=O)N[C@H](C(=O)N[C@@H](CO)C(=O)N[C@@H](CCCCN)C(=O)NCC(=O)N[C@H](C(=O)N[C@H]1CSSC[C@@H](C(=O)N[C@@H](CCCCN)C(=O)N[C@@H](CCCCN)C(=O)N[C@H](C(=O)N[C@@H](CC(C)C)C(=O)N[C@@H](CCCCN)C(=O)N[C@@H](CCC(N)=O)C(N)=O)C(C)C)NC(=O)[C@H](C(C)C)NC(=O)[C@H]([C@@H](C)O)NC(=O)[C@H](CCCCN)NC(=O)[C@H](C(C)C)NC(=O)[C@H](CC(C)C)NC(=O)[C@H](C(C)C)NC1=O)[C@@H](C)O)C(C)C [Analogue 4a] | > 600 pmol/g | 65.5 ± 5.5 µM | > 15 µM | > 15 µM | inactive | – | – | – | –
